Literature values in publication PMC4891020, “Preclinical evaluation of a nanoformulated antihelminthic, niclosamide, in ovarian cancer” (Oncotarget, 2016).
Values after ≈ are worked out from the molar mass of the structure shown.

Experiments:
[1] = parameters: method as in earlier work

systemic bioavailability when administered orally: ~10%
water solubility [1]: 0.23 µg/mL (≈ 0.703 µM)
SMILES: O=C(Nc1ccc([N+](=O)[O-])cc1Cl)c1cc(Cl)ccc1O [Niclosamide, niclosamide]
